tested on: Puccinia recondita; assay: In vivo preventive test on Puccinia recondita (brown rust on wheat); settings: dose 125 ppm; in very similar conditions; prior-art analogues
Experimental: Example C: In Vivo Preventive Test on Puccinia recondita (Brown Rust on Wheat) […]
The young plants of wheat are treated by spraying the active ingredient prepared as described above. […]
After 24 hours, the plants are contaminated by spraying the leaves with an aqueous suspension of Puccinia recondita spores. The contaminated wheat plants are incubated for 24 hours at 20° C. and at 100% relative humidity and then for 10 days at 20° C. and at 70-80% relative humidity.
The test is evaluated 11 days after the inoculation. 0% means an efficacy which corresponds to that of the control plants while an efficacy of 100% means that no disease is observed.

| Structure (SMILES) | Efficacy (Table C2) [%] |
| --- | --- |
| Cc1nn(C)c(F)c1C(=O)N(Cc1cn(-c2ccccc2)c2ccccc12)C1CC1 [13 from WO-2009/016222, N-cyclopropyl-5-fluoro-1,3-dimethyl-N-[(1-phenyl-1H-indol-3-yl)methyl]-1H-pyrazole-4-carboxamide] | 17 |
| Cn1cc(C(=O)N(Cc2cn(-c3ccccc3)c3ccccc23)C2CC2)c(C(F)F)n1 [18 from WO-2009/016222, N-cyclopropyl-3-(difluoromethyl)-1-methyl-N-[(1-phenyl-1H-indol-3-yl)methyl]-1H-pyrazole-4-carboxamide] | 0 |
| CCc1nn(C)c(F)c1C(=O)N(Cc1cn(-c2ccccc2)c2ccccc12)C1CC1 [29 from WO-2009/016222, N-cyclopropyl-3-ethyl-5-fluoro-1-methyl-N-[(1-phenyl-1H-indol-3-yl)methyl]-1H-pyrazole-4-carboxamide] | 22 |
| Cc1nn(C)c(F)c1C(=O)N(Cc1ccc(Oc2ccccc2)nc1)C1CC1 [35 from WO-2008/037789, N-cyclopropyl-5-fluoro-1,3-dimethyl-N-[(6-phenoxypyridin-3-yl)methyl]-1H-pyrazole-4-carboxamide] | 0 |
| Cn1cc(C(=O)N(Cc2ccc(Oc3ccccc3)nc2)C2CC2)c(C(F)F)n1 [36 from WO-2008/037789, N-cyclopropyl-3-(difluoromethyl)-1-methyl-N-[(6-phenoxypyridin-3-yl)methyl]-1H-pyrazole-4-carboxamide] | 0 |

same assay, conditions: dose 500 ppm; in very similar conditions; prior-art analogues

| Structure (SMILES) | Efficacy (Table C3) [%] | Efficacy (Table C2) [%] |
| --- | --- | --- |
| Cc1nn(C)c(F)c1C(=O)N(Cc1nc(-c2ccc(Cl)cc2)cs1)C1CC1 [12 from WO2008/015189, N-{[4-(4-chlorophenyl)-1,3-thiazol-2-yl]methyl}-N-cyclopropyl-5-fluoro-1,3-dimethyl-1H-pyrazole-4-carboxamide] | 0 | – |
| Cc1nn(C)c(F)c1C(=O)N(Cc1cn(-c2ccccc2)c2ccccc12)C1CC1 [13 from WO-2009/016222, N-cyclopropyl-5-fluoro-1,3-dimethyl-N-[(1-phenyl-1H-indol-3-yl)methyl]-1H-pyrazole-4-carboxamide] | – | 78 |
| Cc1nc(-c2ccc(Cl)cc2)sc1CN(C(=O)c1c(C)nn(C)c1F)C1CC1 [17 from WO2008/015189, N-{[2-(4-chlorophenyl)-4-methyl-1,3-thiazol-5-yl]methyl}-N-cyclopropyl-5-fluoro-1,3-dimethyl-1H-pyrazole-4-carboxamide] | 10 | – |
| Cn1cc(C(=O)N(Cc2cn(-c3ccccc3)c3ccccc23)C2CC2)c(C(F)F)n1 [18 from WO-2009/016222, N-cyclopropyl-3-(difluoromethyl)-1-methyl-N-[(1-phenyl-1H-indol-3-yl)methyl]-1H-pyrazole-4-carboxamide] | – | 0 |
| Cn1cc(C(=O)N(Cc2nc(-c3ccc(Cl)cc3)cs2)C2CC2)c(C(F)(F)F)c1 [28 from WO2008/015189, N-{[4-(4-chlorophenyl)-1,3-thiazol-2-yl]methyl}-N-cyclopropyl-1-methyl-4-(trifluoromethyl)-1H-pyrrole-3-carboxamide] | 11 | – |
| CCc1nn(C)c(F)c1C(=O)N(Cc1cn(-c2ccccc2)c2ccccc12)C1CC1 [29 from WO-2009/016222, N-cyclopropyl-3-ethyl-5-fluoro-1-methyl-N-[(1-phenyl-1H-indol-3-yl)methyl]-1H-pyrazole-4-carboxamide] | – | 67 |
| Cc1nn(C)c(F)c1C(=O)N(Cc1ccc(Oc2ccccc2)nc1)C1CC1 [35 from WO-2008/037789, N-cyclopropyl-5-fluoro-1,3-dimethyl-N-[(6-phenoxypyridin-3-yl)methyl]-1H-pyrazole-4-carboxamide] | – | 0 |
| Cn1cc(C(=O)N(Cc2ccc(Oc3ccccc3)nc2)C2CC2)c(C(F)F)n1 [36 from WO-2008/037789, N-cyclopropyl-3-(difluoromethyl)-1-methyl-N-[(6-phenoxypyridin-3-yl)methyl]-1H-pyrazole-4-carboxamide] | – | 0 |
| Cc1nc(-c2ccc(Cl)cc2)sc1CN(C(=O)c1cn(C)nc1C(F)F)C1CC1 [45 from WO2008/015189, N-{[2-(4-chlorophenyl)-4-methyl-1,3-thiazol-5-yl]methyl}-N-cyclopropyl-3-(difluoromethyl)-1-methyl-1H-pyrazole-4-carboxamide] | 0 | – |

same assay, conditions: in very similar conditions; dose of 500 and 125 ppm; analogues of WO2009/016222 and WO2008/037789

| Structure (SMILES) | protection |
| --- | --- |
| Cc1nn(C)c(F)c1C(=O)N(Cc1cn(-c2ccccc2)c2ccccc12)C1CC1 [13 from WO-2009/016222, N-cyclopropyl-5-fluoro-1,3-dimethyl-N-[(1-phenyl-1H-indol-3-yl)methyl]-1H-pyrazole-4-carboxamide] | good (at least 70%) to no protection |
| Cn1cc(C(=O)N(Cc2cn(-c3ccccc3)c3ccccc23)C2CC2)c(C(F)F)n1 [18 from WO-2009/016222, N-cyclopropyl-3-(difluoromethyl)-1-methyl-N-[(1-phenyl-1H-indol-3-yl)methyl]-1H-pyrazole-4-carboxamide] | good (at least 70%) to no protection |
| CCc1nn(C)c(F)c1C(=O)N(Cc1cn(-c2ccccc2)c2ccccc12)C1CC1 [29 from WO-2009/016222, N-cyclopropyl-3-ethyl-5-fluoro-1-methyl-N-[(1-phenyl-1H-indol-3-yl)methyl]-1H-pyrazole-4-carboxamide] | good (at least 70%) to no protection |
| Cc1nn(C)c(F)c1C(=O)N(Cc1ccc(Oc2ccccc2)nc1)C1CC1 [35 from WO-2008/037789, N-cyclopropyl-5-fluoro-1,3-dimethyl-N-[(6-phenoxypyridin-3-yl)methyl]-1H-pyrazole-4-carboxamide] | good (at least 70%) to no protection |
| Cn1cc(C(=O)N(Cc2ccc(Oc3ccccc3)nc2)C2CC2)c(C(F)F)n1 [36 from WO-2008/037789, N-cyclopropyl-3-(difluoromethyl)-1-methyl-N-[(6-phenoxypyridin-3-yl)methyl]-1H-pyrazole-4-carboxamide] | good (at least 70%) to no protection |

tested on: not listed separately; assay: log P by HPLC on reversed-phase column (C 18), EEC Directive 79/831 Annex V.A8; type: physicochemical; settings: HPLC C 18, 40° C., 0.1% aqueous formic acid and acetonitrile, gradient 10% to 90% acetonitrile
Experimental: In table 1, the log P values were determined in accordance with EEC Directive 79/831 Annex V.A8 by HPLC (High Performance Liquid Chromatography) on a reversed-phase column (C 18), using the method described below: Temperature: 40° C.; Mobile phases: 0.1% aqueous formic acid and acetonitrile; linear gradient from 10% acetonitrile to 90% acetonitrile. Calibration was carried out using unbranched alkan-2-ones (comprising 3 to 16 carbon atoms) with known log P values (determination of the log P values by the retention times using linear interpolation between two successive alkanones). lambda-max-values were determined using UV-spectra from 200 nm to 400 nm and the peak values of the chromatographic signals.

| Structure (SMILES) | logP |
| --- | --- |
| Cc1noc(C)c1-c1c(CN(C(=O)c2c(C(F)F)nn(C)c2F)C2CC2)sc2ccccc12 [Example I.55] | 3.51 |
| Cn1cc(C(=O)N(Cc2cc(Br)cnc2Oc2cnc3ccccc3c2)C2CC2)c(C(F)F)n1 [Example I.56] | 3.09 |
| Cn1cc(C(=O)N(Cc2cc(Br)cnc2Sc2cnc3ccccc3c2)C2CC2)c(C(F)F)n1 [Example I.57] | 3.27 |
| Cn1cc(C(=O)N(Cc2cc(Br)cnc2Sc2nccs2)C2CC2)c(C(F)F)n1 [Example I.58] | 3.09 |
| Cn1nc(C(F)F)c(C(=O)N(Cc2nn(-c3ccccc3)cc2C2=CCOCC2)C2CC2)c1F [I.02] | 3.26 |
| Cn1nc(C(F)F)c(C(=O)N(Cc2nn(-c3ccccc3)cc2C2CCOCC2)C2CC2)c1F [I.04] | 3.15 |
| Cn1nc(C(F)F)c(C(=S)N(Cc2nn(-c3ccccc3)cc2-c2ccc3c(ccn3C)c2)C2CC2)c1F [I.05] | 4.64 |
| Cc1ccc(-c2ccsc2CN(C(=O)c2sc(C)nc2C(F)F)C2CC2)s1 [I.06] | 4.08 |
| Cc1ccc(-c2ccsc2CN(C(=O)c2nn(C)nc2C(F)F)C2CC2)s1 [I.07] | 4.11 |
| Cc1ccc(-c2ccsc2CN(C(=O)c2ccsc2Br)C2CC2)s1 [I.08] | 4.69 |
| Cc1ccc(-c2ccsc2CN(C(=O)c2cn(C)cc2C(F)(F)F)C2CC2)s1 [I.09] | 4.18 |
| Cc1cc(C(=O)N(Cc2sccc2-c2ccc(C)s2)C2CC2)c(C)o1 [I.10] | 4.54 |
| CC(C)c1nc(-c2c(CN(C(=O)c3c(C(F)F)nn(C)c3F)C3CC3)sc3ccccc23)cs1 [I.49] | 4.61 |
| Cn1ccc(-c2c(CN(C(=O)c3c(C(F)F)nn(C)c3F)C3CC3)sc3ccccc23)c1 [I.51] | 3.89 |
| Cc1occc1-c1c(CN(C(=O)c2c(C(F)F)nn(C)c2F)C2CC2)sc2ccccc12 [I.52] | 4.20 |

The next lines start with the values.

| logP | Structure (SMILES) |
| --- | --- |
| 4.54 | Cn1nc(C(F)F)c(C(=O)N(Cc2ncc(C(F)(F)F)cc2-c2ccc(Cl)s2)C2CC2)c1F [I.18] |
| 4.46 | Cn1nc(C(F)F)c(C(=O)N(Cc2ncc(C(F)(F)F)cc2-c2csc3ccccc23)C2CC2)c1F [I.20] |
| 4.12 | Cc1cscc1-c1cc(C(F)(F)F)cnc1CN(C(=O)c1c(C(F)F)nn(C)c1F)C1CC1 [I.22] |
| 3.48 | CC(=O)c1ccc(-c2cc(C(F)(F)F)cnc2CN(C(=O)c2c(C(F)F)nn(C)c2F)C2CC2)s1 [I.24] |
| 4.73 | Cn1nc(C(F)F)c(C(=O)N(Cc2ncc(C(F)(F)F)cc2-c2cc3ccccc3s2)C2CC2)c1F [I.25] |
| 3.48 | Cn1nc(C(F)F)c(C(=O)N(Cc2ncc(C(F)(F)F)cc2-c2ccoc2)C2CC2)c1F [I.26] |
| 3.25 | Cn1nc(C(F)F)c(C(=O)N(Cc2ncc(C(F)(F)F)cc2-c2cnc3ccccc3c2)C2CC2)c1F [I.27] |
| 2.76 | Cn1nc(C(F)F)c(C(=O)N(Cc2ncc(C(F)(F)F)cc2-c2cc3ccccc3nc2O)C2CC2)c1F [I.28] |
| 3.68 | Cn1nc(C(F)F)c(C(=O)N(Cc2ncc(C(F)(F)F)cc2-c2ccco2)C2CC2)c1F [I.30] |
| 4.27 | Cc1csc(-c2cc(C(F)(F)F)cnc2CN(C(=O)c2c(C(F)F)nn(C)c2F)C2CC2)c1 [I.32] |
| 3.69 | Cc1ccc(-c2cc(C(F)(F)F)cnc2CN(C(=O)c2c(C(F)F)nn(C)c2F)C2CC2)o1 [I.33] |
| 4.11 | Cc1ccsc1-c1cc(C(F)(F)F)cnc1CN(C(=O)c1c(C(F)F)nn(C)c1F)C1CC1 [I.34] |
| 3.90 | Cn1nc(C(F)F)c(C(=S)N(Cc2ncc(C(F)(F)F)cc2-c2cnc3ccccc3c2)C2CC2)c1F [I.35] |
| 4.03 | Cn1nc(C(F)F)c(C(=S)N(Cc2ncc(C(F)(F)F)cc2-c2ccoc2)C2CC2)c1F [I.36] |
| 3.69 | Cc1cscc1-c1cc(C(F)(F)F)cnc1CN(C(=O)c1cn(C)nc1C(F)F)C1CC1 [I.38] |
| 3.46 | Cn1cc(C(=O)N(Cc2ncc(C(F)(F)F)cc2-c2cccs2)C2CC2)c(C(F)F)n1 [I.39] |
| 3.29 | Cn1cc(C(=O)N(Cc2ncc(C(F)(F)F)cc2-c2ccco2)C2CC2)c(C(F)F)n1 [I.40] |
| 3.92 | Cn1cc(C(=O)N(Cc2ncc(C(F)(F)F)cc2-c2csc3ccccc23)C2CC2)c(C(F)F)n1 [I.42] |
| 3.73 | Cn1cc(C(=O)N(Cc2ncc(C(F)(F)F)cc2-c2coc3ccccc23)C2CC2)c(C(F)F)n1 [I.43] |
| 2.82 | Cn1cc(C(=O)N(Cc2ncc(C(F)(F)F)cc2-c2cnc3ccccc3c2)C2CC2)c(C(F)F)n1 [I.44] |
| 3.27 | Cn1cc(C(=O)N(Cc2ncc(C(F)(F)F)cc2-c2ccnc3cc(Cl)ccc23)C2CC2)c(C(F)F)n1 [I.45] |
| 3.15 | Cn1cc(C(=O)N(Cc2ncc(C(F)(F)F)cc2-c2ccoc2)C2CC2)c(C(F)F)n1 [I.46] |
| 1.66 | Cn1cncc1-c1c(CN(C(=O)c2c(C(F)F)nn(C)c2F)C2CC2)sc2ccccc12 [I.48] |
| 2.76 | Cn1nc(C(F)F)c(C(=O)N(Cc2sc3ccccc3c2-c2cncnc2)C2CC2)c1F [I.54] |

same assay, conditions: reversed-phase HPLC column (C 18); HPLC C 18, 40° C., 0.1% aqueous formic acid and acetonitrile, gradient 10% to 90% acetonitrile

| chromatographic logP | Structure (SMILES) |
| --- | --- |
| 3.67 | Cn1nc(C(F)F)c(C(=O)N(Cc2ncc(C(F)(F)F)cc2-c2ccsc2)C2CC2)c1F [I.17, N-cyclopropyl-3-(difluoromethyl)-5-fluoro-1-methyl-N-{[3-(3-thienyl)-5-(trifluoromethyl)pyridin-2-yl]methyl}-1H-pyrazole-4-carboxamide] |
| 1.39 | Cc1ccc(-c2ccsc2CNC2CC2)s1 [IIb.01, N-[(5-methyl-2,3′-bithiophen-2′-yl)methyl]cyclopropanamine] |
| 3.35 | Cn1nc(C(F)F)c(C(=O)N(Cc2ncc(C(F)(F)F)cc2Cl)C2CC2)c1F [N-{[3-chloro-5-(trifluoromethyl)pyridin-2-yl]methyl}-N-cyclopropyl-3-(difluoromethyl)-5-fluoro-1-methyl-1H-pyrazole-4-carboxamide] |
